Where two headings read alike, the source gives them in different places.
Legend:
[1] = tested on: human lung cancer cell Lu65; experiment: MTT assay, human lung cancer cell Lu65; type: cell-based
Procedure: (§1) Effect of platinum tetrachloride/hydroxyapatite (PtCl4/HAP) and hexachloroplatinate/hydroxyapatite (H2PtCl6/HAP) against human cancer cells (MTT assay)
(§2) According to “in vitro toxicity test using MTT”, which is an ordinary test method, MTT assay was performed for PtCl4/HAP (particle diameter 0.1 μm or less), and H2PtCl6/HAP (particle diameter 0.1 μm or less) by using 19 types of human cancer cells. PtCl4/HAP and H2PtCl6/HAP were used by adjusting the final dispersion concentration to 1.0% in a dispersion liquid each containing 10% platinum as a theoretical value. For comparison, MTT assay was performed for PtCl4 and CDDP. PtCl4 was dissolved at an adequate dose, and then used after serial dilution with PBS (−). For CDDP, injection liquid from Malco was used.

[2] = tested on: human lung cancer cell Lu99; experiment: MTT assay, human lung cancer cell Lu99; type: cell-based
Procedure: as §1, §2

[3] = tested on: fibroblasts at confluency; experiment: Microscopic observation of toxicity effect during resting stage; type: cell-based, rat
Description: A male mature rat was deeply anesthetized with ether, and disinfected by wiping carefully its tail with alcohol. The tail end part was cut by several centimeters, and the skin was removed from coccyx. Tendon was attached to the coccyx, and by culturing the same, fibroblasts can be recovered. Coccyx part was further cut finely with a sterilized pair of scissors, and adhered on a sterilized plastic plate with the cut surface down. After resting the plate for a while, DMEM supplemented with 10% FBS was added thereto. In approximately one week, fibroblasts germinated from the coccyx part, and proliferated in the plate. The fibroblasts collected from rat tail end were used for the following experiment.
From the result of Example 7, 2 ppm which is a value of platinum content that kills 50% of fibroblasts in CDDP during resting stage was set as a standard. Then, CDDP, PtCl4/HAP, PtCl4 and HAP dispersion liquids in an amount corresponding to 2 ppm of platinum content, were added to the fibroblasts at confluency in a medium, and cultured for 48 hours.

[4] = Lu65, platinum compound without hydroxyapatite, for comparison
[5] = Lu99, platinum compound without hydroxyapatite, for comparison

Row | Compound | IC50 of human lung cancer cells by MTT assay [1, 4] [ppm] | Platinum content calculated from IC50 of human lung cancer cell by MTT assay [1, 4] [ppm] | IC50 of human lung cancer cells by MTT assay [2, 5] [ppm] | Platinum content calculated from IC50 of human lung cancer cell by MTT assay [2, 5] [ppm] | Microscopic observation of cell form of cultured fibroblasts [3] | other results
1 | [Cl][Pt-2]([Cl])([Cl])[Cl] [H2PtCl4, tetrachloroplatinate] | 8.8 | 5.1 | 9.1 |  |  | 
2 | [Cl][Pt-2]([Cl])([Cl])([Cl])([Cl])[Cl].[H+].[H+] [H2PtCl6, hexachloroplatinate] |  |  |  |  |  | IC50 of human lung cancer cells by MTT assay [1]: 11.1 ppm; Platinum content calculated from IC50 of human lung cancer cell by MTT assay [1]: 5.3 ppm; IC50 of human lung cancer cells by MTT assay [2]: 7.2 ppm; Platinum content calculated from IC50 of human lung cancer cell by MTT assay [2]: 3.4 ppm
3 | [Cl][Pt-2]([Cl])([Cl])[Cl].[K+].[K+] [K2PtCl4, dipotassium platinum tetrachloride] | 58.2 | 27.4 | 12.1 | 5.7 |  | 
4 | [Cl][Pt-2]([Cl])([Cl])[Cl].[Na+].[Na+] [Na2PtCl4, disodium platinum tetrachloride] | 8.8 | 4.5 | 9.2 | 4.7 |  | 
5 | Hydroxyapatite [HAP] |  |  |  |  | almost no abnormality was observed | 
6 | platinum tetrachloride/hydroxyapatite [PtCl4/HAP] |  |  |  |  | fibroblasts did not lose their original form | 
